Consider two compounds from patent US20170173114A1, “METHODS AND COMPOSITIONS FOR INDUCTION OF UCP1 EXPRESSION” (Joslin Diabetes Center, Inc., priority 2014, published 2017).

SMILES strings stand for the structures.

The test system of one test is PTGS2 (COX2). The test can be described thus: PTGS2 mRNA / COX2 protein expression in WT-1 brown preadipocytes. It is filed as cell-based, murine. To be noted: WT-1, 24 hours; vs vehicle. As for the experimental part: (§1) Total RNA was isolated with QIAzol lysis reagent (Qiagen, Valencia, Calif.) and purified by RNeasy Mini columns (Qiagen) following the manufacture's instructions. cDNA was prepared from total RNA using the Advantage RT-PCR kit (BD Biosciences, Palo Alto, Calif.) according to manufacturer's instructions. Diluted cDNA was used in a PCR reaction with SYBR Green Master Mix (Applied Biosystems, Foster City, Calif.) and primers specifically designed for detection of the gene of interest. PCR reactions were run in duplicate for each sample and quantitated in the ABI Sequence Detection System (Applied Biosystems). Data were expressed as arbitrary units after normalization to levels of expression of internal controls for each sample. Sequences of primers for specific genes are each obtained from the published literature or designed using publically available gene sequence databases. Unless otherwise indicated, gene expression data described in the examples below was obtained using QPCR.
Cells were harvested in lysis buffer (50 mM HEPES, 137 mM NaCl, 1 mM MgCl2, 1 mM CaCl2, 10 mM Na2P2O7, 10 mM NaF, 2 mM EDTA, 10% glycerol, 1% Igepal CA-630, 2 mM vanadate, 10 μg/ml of leupeptin, 10 μg/ml of aprotinin, 2 mM phenylmethylsulfonyl fluoride; pH 7.4). After lysis, lysates were clarified by centrifugation at 12,000×g for 20 min at 4° C., the amount of protein in the supernatants was determined by the Bradford Protein Assay (Bio-Rad Laboratories, Hercules, Calif.). Proteins were directly solubilized in Laemmli sample buffer. Equal amounts of lysates were separated by sodium dodecyl sulfate-polyacrylamide gel electrophoresis and transferred to Immobolin-P membranes. […] Specifically bound primary antibodies were detected with peroxidase-coupled secondary antibody and enhanced chemiluminescence (ECL, Amersham Biosciences, Piscataway, N.J.).
To determine if FGF4, FGF5, FGF6, FGF10, FGF16, FGF17, FGF18 or FGF20 induced either UCP1 mRNA or PTGS2 mRNA expression, murine brown preadipocyte WT-1 cells (Tseng et al., Nat. Cell. Biol. (2005) 7(6):601-611) were grown in growth media (DMEM-high glucose+10% FBS) supplemented with FGF4, FGF5, FGF6, FGF10, FGF16, FGF17, FGF18, FGF20 or buffer (control) in combination with insulin (20 nM) and triidothyronine (T3, 1 nM) for three days. All FGFs were used at a dosage of 200 ng/mL. mRNA was isolated and UCP1 and PTGS2 gene expression levels were evaluated by quantitative reverse transcription polymerase chain reaction (Q-RT-PCR) analysis. […]
To test the role of specific prostaglandins (PGs) in activating UCP1 expression, WT-1 brown adipocytes were pretreated with PGE2, PGI2 and FGF6 for 24 hours. mRNA expression levels of UCP1, PTGS2, LDHA, PDK1 and PKM2 were then measured.

Another test has as its system UCP1. The test can be described thus: UCP1 mRNA expression (Q-RT-PCR) in WT-1 brown preadipocytes. In kind it is cell-based, murine. To be noted: WT-1, 24 hours; vs vehicle. The protocol:
as §1
The effect of FGF6 on differentiation of WT-1 murine brown preadipocytes was also examined. WT-1 cells can be induced to undergo brown adipocyte differentiation, characterized by lipid accumulation and expression of adipogenic and brown fat markers, as described above (Klein et al. (1999) J Biol Chem 274:34795; Tseng et al. (2005) Nat Cell Biol 7:601). WT-1 cells were treated with FGF6 in growth media (DMEM+10% FBS), a vehicle control (“control” or “C” referred to in FIGS. 3A-D), or induction media (“induction” or “I” referred to in FIGS. 3A-D) as described above for seven days. Following the treatment, cells were examined for the color of the culture media in combination with oil Red O staining, expression of adipogenic markers, expression of brown fat markers, immunofluorescent staining of cells with UCP1 and DPAI, and Western blot analysis to determine the presence of UCP1 and β-tubulin. The results are described in FIGS. 3A to 3D.
UCP1 mRNA expression in brown adipocyte cells was determined at FGF6 concentrations ranging from 0 to 300 ng/ml in the absence of induction cocktail.
In order to determine the length of time necessary to induce UCP1 expression upon exposure to of cells to FGF6, an experiment was performed whereby FGF6 was administered to brown preadipocytes at a concentration of 200 ng/ml and UCP1 expression was determined. FGF21 and a control were also used in the time course experiment. FGF21, a member of the endocrine FGF ligands that has been implicated in the browning of white fat (Fisher F. M. et al., Genes Dev. 26:271-281, 2012). […] FGF6 could acutely induce a significant increase of UCP1 expression as early as 4 hours after a 200 ng/ml dose, as described in FIG. 4B. At 24 hours, the fold-induction of UCP1 mRNA by FGF6 reached 700-fold higher than the untreated cells, as described in FIG. 4B.
To assess FGF6's role in the regulation of mitochondrial activity, FGF6 was stably expressed in WT-1 brown preadipocytes and 3T3-F442A white preadipocytes. Stable cells were generated by viral infection followed by drug selection.
FGF2, FGF6 and FGF9 were used at a dosage of 50 ng/mL, 100 ng/mL, 200 ng/mL or 300 ng/mL. FGF21 was used at the dosage of 50 ng/ml and 500 ng/mL. The concentration of BMP7 was 3.3 nM. RNA was isolated and UCP1 and PPARγ expression levels were evaluated by quantitative reverse transcription polymerase chain reaction (Q-RT-PCR) analysis after 24 hours (i.e., 1 day) (FIG. 14A), 2 days (FIG. 14B), 5 days (FIG. 14C) and 7 days (FIG. 14D) of treatment. All experiments were performed triplicate and the data are presented as mean+/−SEM.
FGF2, FGF6 and FGF9 were used at a dosage of 200 ng/mL. FGF21 was used at a dosage of 500 ng/mL. The concentration of BMP7 was 3.3 nM. mRNA was isolated and UCP1 and PPARγ expression levels were evaluated by quantitative reverse transcription polymerase chain reaction (Q-RT-PCR) analysis after 24 hours (i.e., 1 day), 2 days, 5 days and 7 days of treatment (FIG. 15). […]

On to `CCCCC[C@H](O)/C=C/[C@H]1[C@H](O)CC(=O)[C@@H]1C/C=C\CCCC(=O)O` [PGE2, reference compound], for which the “PTGS2 mRNA expression” value in the test with PTGS2 (COX2) is “significantly induced”. In addition, in the test with UCP1, the “UCP1 mRNA expression” value is listed as “significantly induced”.
Turning to `CCCCC[C@H](O)/C=C/[C@@H]1[C@H]2C/C(=C/CCCC(=O)O)O[C@H]2C[C@H]1O` [PGI2, reference compound], the “PTGS2 mRNA expression” value in the test on PTGS2 (COX2) is “significantly induced”. For the same compound, in the test with UCP1, the “UCP1 mRNA expression” value was “significantly induced”.
